Assay results from patent publication US20260250325A1, “Antiviral Polypeptide Membrane Fusion Inhibitor, and Preparation Method and Application Thereof” (priority 2025, published 2026).
Where a SMILES comes first, the peptide text is derived from it. [ ]: non-standard residue; d: D form. The star is where a group is joined. ξ: configuration not given here. Succinyl(4-O-cholesteryl) = CC(C)CCC[C@@H](C)[C@H]1CC[C@H]2[C@@H]3CC=C4C[C@@H](OC(=O)CCC(=O)*)CC[C@]4(C)[C@H]3CC[C@]12C; X1 = CC(C)CCCC(C)C1CCC2C3CC=C4CC(OC(=O)CCC(=O)*)CCC4(C)C3CCC12C; ξD = NC(CC(=O)O)C(=O)O

Tests used:
[1] = Cytotoxicity test in HEp-2 cells (CCK8 cell viability); assay type: cell-based; settings: human; HEp-2 cells, CCK8, 1 day; read-out: CC50
Experimental: (§1) Human Epithelial Pharyngeal Carcinoma Cells (HEp-2) were from the American Type Culture Collection (ATCC), with a catalog number CCL-23. The cells were cultured in a DMEM culture solution in which 10% fetal bovine serum, 1% sodium pyruvate, 1% nonessential amino acids, 2 mM glutamine, 100 U/mL penicillin, and 100 μg/mL streptomycin were added. The RSV A long virus strain was from the ATCC, with a catalog number VR-26.
A cytotoxicity test and an antiviral test were performed in parallel. The HEp-2 cells were inoculated in the microplate at a density of 30,000 cells per well, and cultured overnight in the 37° C. incubator with 5% CO2. On the next day, the diluted test sample was added. The cell control (cells, without compound treatment) and a culture solution control (culture solution only, without cell or compound treatment) were set. A final concentration of DMSO in the culture solution was 0.5%. The cells were cultured for 1 day in the 37° C. incubator with 5% CO2. Cell viability was detected by using a cell viability detection kit CCK8.
(§2) The raw data for plaque counts and cell viability tests were used for analyzing the antiviral activity and cytotoxicity of the test samples, respectively. A calculation formula was shown as follows.
cell survival rate=(sample value-culture medium control average value)/(cell control average value-culture medium control average value)×100
(§3) Non-linear fitting analysis was performed on the inhibition rate of the sample by using GraphPad Prism (version 10), so as to calculate the IC50 and CC50 values for the sample.
CC50: in the in-vitro antiviral activity experiment, CC50 was used to measure the toxicity of the compound to be tested to the Hep-2 cells. To be precise, when the compound to be tested was at a specific concentration, 50% of the Hep-2 cells was caused to die, and this concentration was defined as the CC50. A fitting formula was log (inhibitor) vs. response-Variable slope (four parameters).

RSV A long virus strain = assay type: cell-based; settings: RSV A long virus strain, HEp-2 cells, plaque reduction, 1 day; read-out: IC50
Experimental: In this embodiment, an RSV-A long virus strain was used as an infection virus in the present disclosure. The anti-RSV activity of the synthesized polypeptide was determined through CPE detection.
The inhibitory activity of the compounds of Table 1-1-Table 1-5, positive polypeptide in Table 1-11, and positive control T-118 against the RSV-A long virus strain was detected.
as §1
This study used a plaque reduction experiment to detect the in-vitro activity of a test sample against the RSV A long virus strain. The test sample and a control compound were tested at 8 concentrations in duplicated wells. The HEp-2 cells were digested with trypsin and then diluted to a concentration of 300,000 cells per milliliter by using an experimental culture solution. The diluted cells were added to a 96-well cell test board, with 100 μL per well, corresponding to 30000 cells per well. The cells were cultured overnight in a 37° C. incubator with 5% CO2. On the second day, the test sample was diluted in an experimental culture medium at a fold ratio. The sample diluted at a fold ratio and an equal volume of virus (100 PFU per well) were well mixed and incubated at 37° C. in 5% CO2 for 1 h. Then, the culture solution in the 96-well cell test board was discarded, the sample virus mixed solution (200 μL) was added to the 96-well cell culture plate, and incubated at 37° C. in 5% CO2 for 2 hours. After 2 h, the sample virus mixed solution was discarded, and 200 μL of maintenance culture medium containing 0.8% CMC and the corresponding concentration of the test sample was added. A cell control (cells, without compound treatment or viral infection) and a viral control (cell infection virus, without compound treatment) were set. The cells were cultured for 1 day in the 37° C. incubator with 5% CO2. One day after viral infection, the culture medium was discarded, the cells were fixed with 4% paraformaldehyde, and then permeabilization was performed with 0.5% Triton X-100. After the plate was washed with DPBS, an RSV-specific antibody (RSV antibody, diluted 1:3000) was added and incubated at 37° C. for 1 h. Then, a secondary antibody (donkey anti-goat IgG, diluted 1:500) and incubated at 37° C. for 1 h. The secondary antibody was discarded, a TrueBlue solution was added, dyeing was performed for 10 min; and the plate was washed with running water and then air-dried, and the number of spots in each well was counted by using a microplate imaging counter. Raw data was used for calculating the antiviral activity of the samples.
as §2
% inhibition rate=100−(sample value-cell control average value)/(virus control average value-cell control average value)×100%
as §3
IC50: in an in-vitro antiviral activity experiment, IC50 represented an inhibition ability indicator of a compound to be tested against the Hep-2 cells infected by the RSV A long virus strain.

Structure (SMILES)	CC50 at 1 day [1] [µM]	IC50 (RSV A long virus strain) [µM]
CC[C@H](C)[C@H](NC(=O)[C@H](CCCCN)NC(C)=O)C(=O)N[C@@H](CCC(=O)O)C(=O)N[C@@H](CCC(=O)O)C(=O)N[C@H](C(=O)N[C@@H](CC(N)=O)C(=O)N[C@@H](CCCCN)C(=O)N[C@@H](CCCCN)C(=O)N[C@H](C(=O)N[C@@H](CCC(=O)O)C(=O)N[C@@H](CCC(=O)O)C(=O)N[C@@H](CO)C(=O)N[C@@H](CC(C)C)C(=O)N[C@@H](CCCCN)C(=O)N[C@@H](CCCCN)C(=O)N[C@H](C(=O)N[C@@H](CCC(=O)O)C(=O)N[C@@H](CCC(=O)O)C(=O)N[C@@H](CO)C(=O)N[C@@H](CC(=O)O)C(=O)N[C@@H](CCCCN)C(=O)N[C@@H](CCCCN)C(=O)N[C@@H](CC(C)C)C(=O)N[C@@H](CCC(=O)O)C(=O)N[C@@H](CCC(=O)O)C(=O)N[C@H](C(=O)N[C@@H](CC(N)=O)C(=O)N[C@@H](CCCCN)C(=O)N[C@@H](CCCCN)C(=O)N[C@@H](CC(C)C)C(=O)N[C@@H](CCC(=O)O)C(=O)N[C@@H](C)C(=O)N[C@@H](C)C(=O)N[C@@H](C)C(=O)N[C@@H](CCCCN)C(=O)N[C@@H](CCCCNC(=O)CCC(=O)OC1CCC2(C)C(=CCC3C2CCC2(C)C(C(C)CCCC(C)C)CCC32)C1)C(N)=O)C(C)C)[C@@H](C)CC)[C@@H](C)CC)C(C)C (some centres unmarked) [Compound 10] (Ac-KIEEVNKKIEESLKKIEESDKKLEEVNKKLEAAAKK(X1)-NH2)	1.4	0.0181
CC[C@H](C)[C@H](NC(=O)[C@H](C)NC(=O)[C@H](C)NC(=O)[C@H](CC(C)C)NC(=O)[C@H](CO)NC(=O)[C@H](CCC(N)=O)NC(=O)[C@H](CC(N)=O)NC(=O)[C@@H](NC(=O)[C@H](CCCCN)NC(=O)[C@H](CCC(=O)O)NC(=O)[C@H](CC(N)=O)NC(=O)[C@@H](NC(=O)[C@H](CCC(N)=O)NC(=O)[C@H](CO)NC(=O)[C@@H](NC(=O)[C@H](CO)NC(=O)[C@H](C)NC(=O)[C@H](CC(=O)O)NC(=O)[C@H](Cc1ccccc1)NC(=O)[C@H](CCC(=O)O)NC(=O)[C@H](CC(=O)O)NC(=O)[C@H](CO)NC(=O)[C@@H]1CCCN1C(=O)[C@H](Cc1ccccc1)NC(=O)[C@@H](NC(C)=O)C(C)C)[C@@H](C)CC)C(C)C)[C@@H](C)CC)C(=O)N[C@@H](CCCNC(=N)N)C(=O)N[C@@H](CCCCN)C(=O)N[C@@H](CO)C(=O)N[C@@H](CC(=O)O)C(=O)N[C@@H](CCC(=O)O)C(=O)N[C@@H](CC(C)C)C(=O)N[C@@H](CC(C)C)C(=O)N[C@@H](Cc1c[nH]cn1)C(=O)N[C@@H](CC(N)=O)C(=O)N[C@H](C(N)=O)C(C)C [Positive polypeptide 6, reference compound] (Ac-VFPSDEFDASISQVNEKINQSLAAIRKSDELLHNV-NH2)	> 10	> 0.3
CC[C@H](C)[C@H](NC(=O)[C@H](CCC(=O)O)NC(=O)[C@H](CCC(=O)O)NC(=O)[C@H](CC(C)C)NC(=O)[C@H](CO)NC(=O)[C@H](CCC(=O)O)NC(=O)[C@H](CCC(=O)O)NC(=O)[C@@H](NC(=O)[C@H](CCCCN)NC(=O)[C@H](CCC(=O)O)NC(=O)[C@H](CC(N)=O)NC(=O)[C@@H](NC(=O)[C@H](CCC(N)=O)NC(=O)[C@H](CC(N)=O)NC(=O)[C@@H](NC(=O)[C@H](CCCCN)NC(=O)[C@H](CCC(N)=O)NC(=O)[C@H](CC(N)=O)NC(=O)[C@H](Cc1ccccc1)NC(=O)[C@H](CCC(=O)O)NC(=O)[C@H](C)NC(=O)[C@H](Cc1ccccc1)NC(C)=O)[C@@H](C)CC)C(C)C)[C@@H](C)CC)C(=O)N[C@@H](CCCNC(=N)N)C(=O)N[C@@H](CCCCN)C(=O)N[C@@H](CO)C(=O)N[C@@H](CC(=O)O)C(=O)N[C@@H](CCC(=O)O)C(=O)N[C@@H](CCC(=O)O)C(=O)N[C@@H](CC(C)C)C(=O)N[C@@H](Cc1c[nH]cn1)C(=O)N[C@@H](CC(N)=O)C(=O)N[C@H](C(=O)N[C@@H](CC(N)=O)C(=O)N[C@@H](C)C(=O)N[C@H](C(=O)N[C@H](C(N)=O)[C@@H](C)O)[C@@H](C)O)C(C)C [Compound 8] (Ac-FAEFNQKINQVNEKIEESLEEIRKSDEELHNVNATT-NH2)	> 8	3.77
CC[C@H](C)[C@H](NC(=O)[C@H](CCCCN)NC(=O)[C@H](CCCCN)NC(=O)[C@H](CC(C)C)NC(=O)[C@H](CO)NC(=O)[C@H](CCC(=O)O)NC(=O)[C@H](CCC(=O)O)NC(=O)[C@@H](NC(=O)[C@H](CCCCN)NC(=O)[C@H](CCCCN)NC(=O)[C@H](CC(N)=O)NC(=O)[C@@H](NC(=O)[C@H](CCC(=O)O)NC(=O)[C@H](CCC(=O)O)NC(=O)[C@@H](NC(=O)[C@H](CCCCN)NC(=O)[C@H](CCCCN)NC(=O)[C@H](CCCCN)NC(=O)[C@H](CC(=O)O)NC(=O)[C@H](Cc1ccccc1)NC(=O)[C@H](CCC(=O)O)NC(=O)[C@H](CC(=O)O)NC(C)=O)[C@@H](C)CC)C(C)C)[C@@H](C)CC)C(=O)N[C@@H](CCC(=O)O)C(=O)N[C@@H](CCC(=O)O)C(=O)N[C@@H](CO)C(=O)N[C@@H](CC(=O)O)C(=O)N[C@@H](CCCCN)C(=O)N[C@@H](CCCCN)C(=O)N[C@@H](CC(C)C)C(=O)N[C@@H](CCC(=O)O)C(=O)N[C@@H](CCC(=O)O)C(=O)N[C@H](C(=O)N[C@@H](CCC(=O)O)C(=O)N[C@@H](C)C(=O)N[C@@H](C)C(=O)N[C@@H](C)C(=O)N[C@@H](CCCCN)C(=O)N[C@@H](CCCCNC(=O)CCC(=O)O[C@H]1CC[C@@]2(C)C(=CC[C@H]3[C@@H]4CC[C@H]([C@H](C)CCCC(C)C)[C@@]4(C)CC[C@@H]32)C1)C(N)=O)C(C)C [Compound 22] (Ac-DEFDKKKIEEVNKKIEESLKKIEESDKKLEEVEAAAKK(Succinyl(4-O-cholesteryl))-NH2)	3.7	
CC[C@H](C)[C@H](NC(=O)[C@H](CCCCN)NC(=O)[C@H](CCCCN)NC(=O)[C@H](CC(C)C)NC(=O)[C@H](CO)NC(=O)[C@H](CCC(=O)O)NC(=O)[C@H](CCC(=O)O)NC(=O)[C@@H](NC(=O)[C@H](CCCCN)NC(=O)[C@H](CCCCN)NC(=O)[C@H](CC(N)=O)NC(=O)[C@@H](NC(=O)[C@H](CCC(=O)O)NC(=O)[C@H](CCC(=O)O)NC(=O)[C@@H](NC(=O)[C@H](CCCCN)NC(=O)[C@H](CCCCN)NC(=O)[C@H](CCCCN)NC(=O)[C@H](CC(=O)O)NC(=O)[C@H](Cc1ccccc1)NC(=O)[C@H](CCC(=O)O)NC(=O)C(CC(=O)O)NC(C)=O)[C@@H](C)CC)C(C)C)[C@@H](C)CC)C(=O)N[C@@H](CCC(=O)O)C(=O)N[C@@H](CCC(=O)O)C(=O)N[C@@H](CO)C(=O)N[C@@H](CC(=O)O)C(=O)N[C@@H](CCCCN)C(=O)N[C@@H](CCCCN)C(=O)N[C@@H](CC(C)C)C(=O)N[C@@H](CCC(=O)O)C(=O)N[C@@H](CCC(=O)O)C(=O)N[C@H](C(=O)NCC(=O)N[C@@H](CO)C(=O)NCC(=O)N[C@@H](CO)C(=O)NCC(=O)N[C@@H](CCCCNC(=O)CCC(=O)O[C@H]1CC[C@@]2(C)C(=CC[C@H]3[C@@H]4CC[C@H]([C@H](C)CCCC(C)C)[C@@]4(C)CC[C@@H]32)C1)C(N)=O)C(C)C (some centres unmarked) [Compound 18] (Ac-[ξD]EFDKKKIEEVNKKIEESLKKIEESDKKLEEVGSGSGK(Succinyl(4-O-cholesteryl))-NH2)	6.4	
